According to patent US20250017940A1, “SELECTIVE PEPTIDOMIMETIC MODULATORS OF CAV2.2 (N-TYPE) VOLTAGE-GATED CALCIUM CHANNELS AND USES THEREOF” (New York University, priority 2023, published 2025):

Legend:
[1] = biological target: T1, Cav2.2 (N-type) calcium channels (Rattus norvegicus, UniProt Q02294); test: Whole-cell patch-clamp, isolated N-type Ca2+ currents in DRG neurons; assay type: cell-based; settings: for normalized peak N-type ICa2+ density: normalized to DMSO (1.00±0.07)
T1 construct: Recordings were obtained from acutely dissociated DRG neurons; endogenous in cells; host or cells: primary rat DRG neurons
Procedure: Recordings were obtained from acutely dissociated DRG neurons as described earlier (Bellampalli et al., 2019). Patch-clamp recordings were performed at room temperature (22-24° C.). Currents were recorded using an EPC 10 Amplifier-HEKA (HEKA Elektronik, Ludwigshafen, Germany) linked to a computer with Patchmaster software. […]
For total calcium current (ICa^2+) recordings, the external solution consisted of the following (in mM): 110 N-methyl-D-glucamine, 10 BaCl2, 30 TEA-Cl, 10 HEPES, 10 glucose, and 0.001 TTX (pH 7.29 adjusted with TEA-OH, and mOsm/L=310). Patch pipettes were filled with an internal solution containing (in mM): 150 CsCl2, 10 HEPES, 5 Mg-ATP, and 5 BAPTA, (pH 7.2 adjusted with CsOH, and mOsm/L-305). Peak Ca^2+ current was acquired by applying 200-millisecond voltage steps from −70 to +60 mV in 10-mV increments from a holding potential of −90 mV to obtain the current-voltage (I-V) relation. To measure the different subtypes of Ca^2+ channels, DRGs were treated with a Cav inhibitor cocktail omitting the inhibitor specific to the subtype being tested (e.g., to measure Cav2.2 currents, ω-conotoxin GVIA is omitted): Nifedipine (10 μM, L-type), ω-Conotoxin-GVIA (500 nM, […]) (Feng, et al., 2001), SNX482 (200 nM, R-type) (Newcomb et al., 1998), ω-agatoxin (200 nM, P/Q-type) (Mintz et al., 1992), TTA-P2 (1 μM, T-type) (Choe et al., 2011).
Normalization of currents to each cell's capacitance (pF) was performed to allow for collection of current density data. For I-V curves, functions were fitted to data using a non-linear least squares analysis. I-V curves were fitted using double Boltzmann functions:
where x is the pre-pulse potential, V1/2 is the mid-point potential, and k is the corresponding slope factor for single Boltzmann functions. Double Boltzmann fits were used to describe the shape of the curve, not to imply the existence of separate channel populations. Numbers 1 and 2 simply indicate first and second mid-points; a along with g are fitting parameters.
Activation curves were obtained from the I-V curves by dividing the peak current at each depolarizing step by the driving force according to the equation: G=I/(Vmem-Erev), where I is the peak current, Vmem is the membrane potential and Erev is the reversal potential. The conductance (G) was normalized against the maximum conductance (Gmax). For total and the different subtypes of Ca^2+ currents, steady-state inactivation (SSI) curves were obtained by applying an H-infinity protocol that consisted of 1.5-seconds conditioning pre-pulses from −100 to +30 mV in 10-mV increments followed by a 20-millisecond test pulse to +10 mV. For Na^+ currents, SSI curves were obtained by applying an H-infinity protocol that consisted of 1-second conditioning pre-pulses from −120 to +10 mV in 10-mV increments followed by a 200-millisecond test pulse to +10 mV. Inactivation curves were obtained by dividing the peak current recorded at the test pulse by the maximum current (Imax). Activation and SSI curves were fitted with the Boltzmann equation.

Cav2.2 = biological target: T2, Cav2.2 (Rattus norvegicus, UniProt Q02294); test: Immunocytochemistry / confocal microscopy of Cav2.2 membrane expression in DRG neurons; assay type: cell-based; settings: 20 μM overnight (DMSO: 3.59±0.42)
T2 construct: Recordings were obtained from acutely dissociated DRG neurons; endogenous in cells; host or cells: primary rat DRG neurons
Procedure: Lumbar DRGs were dissected from 100 g female Sprague-Dawley rats using procedures as described previously (Gomez et al., 2022). DRGs were excised and placed in sterile DMEM (Cat #11965; Thermo Fisher Scientific, Waltham, MA). The ganglia were dissociated enzymatically with collagenase type I (5 mg/mL, Cat #LS004194; Worthington) and neutral protease (3.125 mg/mL, Cat #LS02104; Worthington, Lakewood, NJ) for 50 minutes at 37° C. under gentle agitation. The dissociated cells were then centrifuged (800 rpm for 5 min) and resuspended in DMEM containing 1% penicillin/streptomycin sulfate (Cat #15140, Life Technologies, Carlsbad, CA), 10% fetal bovine serum [HyClone]), and 30 ng/mL nerve growth factor (Cat #N2513, Millipore Sigma, St. Louis, MO). The cells were seeded on poly-D-lysine (Cat #P6407, Millipore Sigma, St. Louis, MO) and laminin (Cat #sc-29012, Santa Cruz Biotechnology, Dallas, TX) -coated 12- or 15-mm glass coverslips and incubated at 37° C. All cultures were used within 48 hours.
Immunocytochemistry was performed on DRG neurons incubated with vehicle (0.1% DMSO) or CBD3063 (20 μM) overnight. […] For all quantitative comparisons among cells under differing experimental conditions, camera gain and other relevant settings were kept constant. The freeware image analysis program Image J (http://rsb.info.nih.gov/ij/) was used for quantifying cellular fluorescence. […]

[2] = 20 μM overnight, mean ± SEM (n cells)

T1 sequence (Q02294 whole entry): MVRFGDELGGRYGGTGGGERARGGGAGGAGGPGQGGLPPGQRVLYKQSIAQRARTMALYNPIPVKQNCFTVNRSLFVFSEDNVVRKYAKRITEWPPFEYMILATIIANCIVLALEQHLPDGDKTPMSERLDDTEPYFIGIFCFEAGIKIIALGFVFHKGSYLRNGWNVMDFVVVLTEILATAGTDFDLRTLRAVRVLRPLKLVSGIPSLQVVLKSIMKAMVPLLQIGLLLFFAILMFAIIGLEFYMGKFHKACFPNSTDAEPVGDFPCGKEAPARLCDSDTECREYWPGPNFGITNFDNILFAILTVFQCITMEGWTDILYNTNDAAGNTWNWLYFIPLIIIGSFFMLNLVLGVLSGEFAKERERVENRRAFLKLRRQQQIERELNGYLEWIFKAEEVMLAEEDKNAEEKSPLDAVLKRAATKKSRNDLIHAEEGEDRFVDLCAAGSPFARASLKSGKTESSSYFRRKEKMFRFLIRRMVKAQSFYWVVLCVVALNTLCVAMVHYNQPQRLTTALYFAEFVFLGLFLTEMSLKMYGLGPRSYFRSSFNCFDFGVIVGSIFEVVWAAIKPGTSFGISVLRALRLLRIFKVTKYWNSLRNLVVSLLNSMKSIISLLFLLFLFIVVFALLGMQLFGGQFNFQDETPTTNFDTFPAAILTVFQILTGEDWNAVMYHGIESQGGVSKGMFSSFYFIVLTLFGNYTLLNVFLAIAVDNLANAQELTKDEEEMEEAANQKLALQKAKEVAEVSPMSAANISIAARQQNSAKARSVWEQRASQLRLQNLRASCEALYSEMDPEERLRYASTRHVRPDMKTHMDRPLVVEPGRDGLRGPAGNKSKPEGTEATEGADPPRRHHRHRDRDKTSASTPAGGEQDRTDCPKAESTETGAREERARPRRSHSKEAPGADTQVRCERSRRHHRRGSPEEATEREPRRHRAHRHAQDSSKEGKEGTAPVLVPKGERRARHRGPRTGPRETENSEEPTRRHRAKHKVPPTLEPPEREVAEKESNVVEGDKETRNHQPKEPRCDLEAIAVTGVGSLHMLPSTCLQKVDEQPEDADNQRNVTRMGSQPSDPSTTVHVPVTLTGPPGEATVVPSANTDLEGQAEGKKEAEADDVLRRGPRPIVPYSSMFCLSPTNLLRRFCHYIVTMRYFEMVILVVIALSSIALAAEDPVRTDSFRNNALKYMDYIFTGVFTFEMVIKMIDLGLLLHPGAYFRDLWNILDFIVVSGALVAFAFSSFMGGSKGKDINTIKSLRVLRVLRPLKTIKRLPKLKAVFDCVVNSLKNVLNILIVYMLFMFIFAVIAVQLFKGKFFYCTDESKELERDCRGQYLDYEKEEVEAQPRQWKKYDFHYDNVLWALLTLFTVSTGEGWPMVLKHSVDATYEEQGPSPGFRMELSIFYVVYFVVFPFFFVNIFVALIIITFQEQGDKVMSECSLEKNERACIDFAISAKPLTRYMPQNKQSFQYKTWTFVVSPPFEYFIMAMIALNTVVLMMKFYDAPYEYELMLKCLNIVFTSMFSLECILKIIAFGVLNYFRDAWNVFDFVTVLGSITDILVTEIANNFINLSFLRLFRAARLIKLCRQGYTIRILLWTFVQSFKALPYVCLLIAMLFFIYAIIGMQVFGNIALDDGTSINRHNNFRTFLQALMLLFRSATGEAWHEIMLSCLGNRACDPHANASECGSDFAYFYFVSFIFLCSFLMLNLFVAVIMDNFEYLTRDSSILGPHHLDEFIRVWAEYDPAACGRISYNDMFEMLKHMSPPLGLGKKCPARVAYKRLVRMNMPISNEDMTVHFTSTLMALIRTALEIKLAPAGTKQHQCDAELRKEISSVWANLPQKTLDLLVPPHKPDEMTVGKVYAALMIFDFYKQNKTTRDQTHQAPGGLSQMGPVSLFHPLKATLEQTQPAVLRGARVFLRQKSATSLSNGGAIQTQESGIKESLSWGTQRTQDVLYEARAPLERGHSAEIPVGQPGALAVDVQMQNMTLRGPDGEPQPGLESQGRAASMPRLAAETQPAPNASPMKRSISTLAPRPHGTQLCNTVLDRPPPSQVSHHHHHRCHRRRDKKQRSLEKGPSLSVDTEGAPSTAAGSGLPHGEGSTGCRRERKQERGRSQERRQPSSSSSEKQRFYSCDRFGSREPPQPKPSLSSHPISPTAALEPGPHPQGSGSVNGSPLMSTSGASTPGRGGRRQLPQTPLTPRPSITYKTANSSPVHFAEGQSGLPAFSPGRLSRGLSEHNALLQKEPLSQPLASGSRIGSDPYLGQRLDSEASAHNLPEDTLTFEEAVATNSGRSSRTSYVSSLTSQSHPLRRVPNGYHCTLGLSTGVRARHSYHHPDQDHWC
T1 sequence (P54290 25-1091 partner): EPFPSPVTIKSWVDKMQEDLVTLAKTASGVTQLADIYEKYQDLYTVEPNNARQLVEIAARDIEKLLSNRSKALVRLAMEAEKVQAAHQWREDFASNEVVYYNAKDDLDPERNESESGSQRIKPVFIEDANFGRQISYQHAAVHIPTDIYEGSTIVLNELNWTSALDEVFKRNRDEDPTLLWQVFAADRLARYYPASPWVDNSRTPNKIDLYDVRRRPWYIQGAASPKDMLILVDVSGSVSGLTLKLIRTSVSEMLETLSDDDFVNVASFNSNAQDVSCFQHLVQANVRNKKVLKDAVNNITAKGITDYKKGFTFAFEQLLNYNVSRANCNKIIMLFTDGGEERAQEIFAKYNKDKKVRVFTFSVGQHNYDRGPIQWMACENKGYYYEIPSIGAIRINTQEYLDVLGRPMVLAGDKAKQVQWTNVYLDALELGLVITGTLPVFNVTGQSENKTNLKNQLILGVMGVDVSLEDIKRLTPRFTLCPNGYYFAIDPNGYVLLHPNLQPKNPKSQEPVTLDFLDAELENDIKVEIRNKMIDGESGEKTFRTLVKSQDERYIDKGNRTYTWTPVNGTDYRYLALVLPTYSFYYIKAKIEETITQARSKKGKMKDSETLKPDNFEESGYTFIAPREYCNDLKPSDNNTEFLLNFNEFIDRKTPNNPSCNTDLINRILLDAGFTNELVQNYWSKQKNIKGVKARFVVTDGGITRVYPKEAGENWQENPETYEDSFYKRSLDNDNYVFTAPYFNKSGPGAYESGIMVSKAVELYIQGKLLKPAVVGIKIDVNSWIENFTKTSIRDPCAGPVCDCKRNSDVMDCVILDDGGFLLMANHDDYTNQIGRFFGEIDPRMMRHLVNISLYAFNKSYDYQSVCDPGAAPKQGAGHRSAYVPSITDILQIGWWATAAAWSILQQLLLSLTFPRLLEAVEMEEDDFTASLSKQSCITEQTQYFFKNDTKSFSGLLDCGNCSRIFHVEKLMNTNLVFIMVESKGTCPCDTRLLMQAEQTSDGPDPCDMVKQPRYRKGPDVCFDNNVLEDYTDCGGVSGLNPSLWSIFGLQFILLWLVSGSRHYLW
T1 sequence (P54287 whole entry partner): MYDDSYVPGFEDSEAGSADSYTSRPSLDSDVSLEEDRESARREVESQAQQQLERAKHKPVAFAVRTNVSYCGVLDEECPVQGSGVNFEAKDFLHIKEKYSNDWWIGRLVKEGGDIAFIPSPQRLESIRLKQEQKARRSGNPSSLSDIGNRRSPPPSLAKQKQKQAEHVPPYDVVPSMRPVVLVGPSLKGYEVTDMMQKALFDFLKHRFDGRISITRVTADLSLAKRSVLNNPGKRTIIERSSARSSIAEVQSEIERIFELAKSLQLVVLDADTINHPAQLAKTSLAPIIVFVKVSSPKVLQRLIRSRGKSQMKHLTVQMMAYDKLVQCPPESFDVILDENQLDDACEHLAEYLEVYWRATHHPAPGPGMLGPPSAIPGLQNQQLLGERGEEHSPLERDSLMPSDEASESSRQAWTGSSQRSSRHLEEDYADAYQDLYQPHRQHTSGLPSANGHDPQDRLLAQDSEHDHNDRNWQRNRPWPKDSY
T2 sequence (Q02294 whole entry): as the sequence (Q02294 whole entry) above
T2 sequence (P54290 25-1091 partner): as the sequence (P54290 25-1091 partner) above
T2 sequence (P54287 whole entry partner): as the sequence (P54287 whole entry partner) above

## CC(=O)N[C@@H]1CCCN(C(=O)NCCCNc2ccccn2)C1 [CBD3063, (3R)-3-acetamido-N-[3-(pyridin-2-ylamino)propyl]piperidine-1-carboxamide]
[1]; 2 μM overnight
  normalized peak N-type ICa2+ density: 0.93±1.07
[1]; 20 μM overnight, +10 mV (DMSO: −104.00±11.32)
  peak N-type calcium current density: −69.18±6.54 pA/pF
[1]; 20 μM overnight, +10 mV, vs control group
  decrease of N-type currents at peak current density: ~33.5%
[1]; [2]
  N-type Ca2+ currents, activation V1/2: −5.275 ± 0.669 (17) mV
  N-type Ca2+ currents, activation k (slope factor): 5.616 ± 0.566 (17)
  N-type Ca2+ currents, inactivation V1/2: −31.129 ± 2.169 (17) mV
  N-type Ca2+ currents, inactivation k (slope factor): −17.247 ± 2.104 (17)
[1]; 20 μM overnight
  normalized peak N-type ICa2+ density: 0.74±0.04
[1]; 50 μM overnight
  normalized peak N-type ICa2+ density: 0.65±0.06
Cav2.2
  Cav2.2 membrane/cytosol ratio: 1.64±0.10
